Source: patent US6271369A, “Chimeric molecules targeted to viral RNAs” (priority 1997, dated 2001)
Entries after “also recorded” stand apart in the source; their conditions may differ.

Key:
[1] = tested on: TAR:A25 :vif RNA; experiment: Site-directed cleavage of TAR:A25:vif RNA in Daudi cell extract; type: biochemical, HIV-1
Source text: To determine the ability of the 2-5A:AS chimeric molecule SEQ ID NO:1 to induce site-directed RNA cleavage, a target RNA was constructed having an internal 3',5'-oligo(rA) tract. Hybridization between the (dT18) in SEQ ID NO:1 with the oligo(rA) in the target RNA attracts 2-5A-dependent RNase to the target RNA, resulting in a highly specific cleavage event. The experimental target, TAR:A25 :vif RNA, was produced in vitro from a pSP64-derived plasmid containing a partial cDNA for the HIV vif protein interrupted with 25 adenylyl residues. A control TAR:vif RNA was constructed with the A25 tract deleted. These RNA species, which lack 3'-poly(rA) tails, were radiolabeled at their 3'-termini with [5'-^32 p)-pCp by T4 RNA ligase and gel purified prior to the assay.
The 2-5A:AS strategy for site-directed RNA cleavage was next tested in a cell-free system consisting of a postribosomal supernatant fraction of human lymphoblastoid Daudi cells.
Daudi cell extracts prepared with dounce homogenization were made by the well known method of Wreschner, et al. in a buffer containing 40mM KCl; 10 mM HEPES pH 7.5; 2.5mM magnesium acetate; 0.5mM ATP; 2.5% glycerol and 2.0mM mercaptoethanol. The extract used in the RNA cleavage assays was the supernatant of a 100,000 ×g centrifugation of cell extract. About 100 nM radiolabeled RNA (approximately 25,000 counts/min/assay) was incubated with oligonucleotides at 30° C. in extract (10μl) supplemented with 75mM KCl in a final volume of 20 μl. Reactions were terminated and the RNA was extracted with phenollchloroform. The RNA was then ethanol precipitated and redissolved in sterile water and an equal volume of formamide gel sample buffer. Cleavage products were analyzed in 6% polyacrylamide/8M urea gels (30×40×0.04cm).
The cleavage reaction was performed after adding SEQ ID NO:l and purified radiolabeled TAR:A25 :vif RNA to the Daudi cell extract (without preannealing) followed by incubation at 30° C. In the absence of added oligonucleotide, the TAR:A25 :vif RNA was degraded with a half-life of about 90 minutes.
An experiment was conducted to analyze (A) the in vitro transcription of AccI restriction endonuclease-digested plasmids containing TAR:A25 :vif and TAR:vif sequences and (B) the specific cleavage of TAR:A25 ;vif RNA induced by SEQ ID NO:1 (100nM) in extracts of Daudi cells as a function of time. The breakdown of TAR:A25 :vif RNA (intact RNA) was proportional to the appearance of the specific cleavage product. Data was obtained by running a gel with the products of the experiment and then making an autoradiogram of the dried gel. The autoradiogram was then subjected to image analysis with a video camera (Sierra Scientific) and the QUICKCAPTURE.COPYRGT. (Marlboro, Mass.) and IMAGE.COPYRGT. computer programs run on a MACINTOSH IIci.cndot. computer. The percentage of RNA shown in FIG. 6 was based on the sum of the intact RNA and the specific RNA cleavage product.
Cleavage of TAR:A25 :vif RNA (about 100 nM) as a function of SEQ ID NO:1 concentration was also measured. The cleavage reaction was allowed to continue for 30 minutes in Daudi cell extract at 30° C. The levels of the specific cleavage products (relative peak areas) were determined from an autoradiogram as described in relation to FIG. 6 above. The results shown in FIGS. 6 and 7 were reproduced three times.

[2] = tested on: poly(A); experiment: UV absorbance-temperature profile (melting) of complex with poly(A); type: physicochemical; settings: 40 mM KH2PO4 pH 7.0
Procedure: We also compared the melting temperature of poly (A) with the melting temperature of SEQ ID NO:1 (FIG. 4). For this experiment, 1000 μL of 3.2×10^-6 M poly(A) in KH2 PO4 buffer (pH 7.0, 40 mM) was mixed with 1000 μL of 2.9 ×10^-6 M SEQ ID NO:1 in KH2 PO4 buffer, and the resulting mixture was incubated at 4° overnight before determination of melting temperature. At/Ai refers to the ratio of absorbance (At) at a given temperature compared to the absorbance (Ai) at the initial temperature (25-30° ). No -attempt was made to determine complex stoichiometry (2- or 3-stranded). Under similar conditions, an equimolar mixture of poly(A) and oligo(dT)20 gave a complex with a Tm of 40° (data not shown).
The effect of the 2-5A moiety of SEQ ID NO:1 on the ability of the dT18 region to anneal with its complementary poly (A) sequence as determined from UV absorbance-temperature profiles is shown in FIG. 4.

[3] = tested on: TAR:A25 :vif RNA; experiment: Primer-extension analysis of TAR:A25:vif RNA cleavage products; type: biochemical, HIV-1
Procedure: To determine the exact sites of cleavage of the TAR:A25 :vif RNA induced by SEQ ID NO:1, a primer-extension DNA synthesis reaction was performed on the RNA cleavage products with reverse transcriptase.
A primer extension assay was used as described by Driscoll, et al. (Cell, 58:519 (1989)) except that all four dNTPs were included. DNA sequencing of plasmid pSP6/TAR:A25 :vif was with the same primer using Sequenase version 2.0 (United States Biochemical) and ^35 S-dATP. The sequence of the primer was 5'-[…]-3'(SEQ ID NO:3). Results were reproduced from two separate sets of RNA cleavage reactions.
The cleavage sites of the RNA subjected to the RNA cleavage reactions described above were determined by comparing the migration of the primer extension products and DNA sequencing products performed with the same primer annealed to the plasmid containing the TAR:A25 :vif sequence. […] Previous reports indicate that unmodified 2-sA stimulates 2-5A-dependent RNase to cleave RNA on the 3'-side of UN sequences, where N stands for any nucleotide.

[4] = about 100 nM RNA, 30 minutes, 30° C., FIG. 7

For “p5'A2'(p5'A2')2 P5'A2'p1[OCH2 (CH2)2 CH2 O]4p1[OCH2 (CH2)2 CH2 O]4p5'pdT3'(p5'dt3')16 p5'dt (AAAATTTTTTTTTTTTTTTTTT; chemistry not fully specified) [SEQ ID NO:1]”, the “incubation time for 50% breakdown to the specific cleavage product” value ([1]; 100 nM, Daudi extract, 30° C., FIG. 6) was 20 min, the “incubation time after which breakdown to cleavage product could be seen clearly” value ([1]; Daudi extract, 30° C.) was 5 min and the “specific cleavage of TAR:A25:vif RNA” value ([1]; Daudi extract, 30° C., 30 minutes) was “nearly quantitative conversion of the intact RNA to a specific cleavage product; also recorded: Specific cleavage of the substrate was observed”. For the same substance, the “lowest concentration at which cleavage reaction was observed” value [1, 4] was 25 nM, the “optimal concentration for the cleavage reaction” value [1, 4] was 250 nM and the “increase of rate of breakdown of TAR:A25:vif RNA” value ([1]; versus no added oligonucleotide (half-life about 90 minutes)) was “more than four-fold”. For the same substance, the “melting temperature (Tm) of complex with poly(A)” value [2] was “approximately 38 °C”, the “hypochromicity on mixing with poly(A)” value ([2]; 3.2×10^-6 M poly(A) + 2.9×10^-6 M) was 17% and the “specific cleavage products / cleavage sites by primer extension” value [3] was “induced multiple cleavages within the oligo(rA) tract”. For the same substance, the “levels of intact RNA (full-length primer extension products)” value ([3]; after incubation in cell-free system) was “greatly reduced”.
